Experimental findings from ChEMBL document CHEMBL6078678, “Unveiling the Antimycobacterial Potential of Novel 4-Alkoxyquinolines: Insights into Selectivity, Mechanism of Action, and In Vivo Exposure” (J Med Chem, 2024) are described below.

Series [1] is described as follows: (§1) Cytotoxicity against human HepG2 cells assessed as reduction in cell viability incubated for 72 hrs by MTT assay. The class given is toxicity, cell-based. To be noted: HepG2 cells. A general note: Tetrazolium assays rely on reduction of a dye to a coloured formazan, in cell work by metabolically active cells.
Series [2] in a line: (§2) Cytotoxicity against African green monkey Vero cells assessed as reduction in cell viability incubated for 72 hrs by MTT assay. The series is classed as toxicity, cell-based. The settings on record: chlorocebus sabaeus, Vero cells.
Series [3] concerns Mycobacterium tuberculosis. The series is described as follows: microbe, parasite or virus in culture. The settings on record: H37Rv (ATCC 27294).
The nature of series [4]: Aqueous solubility of compound in HCl at pH 1.2 incubated for 4 hrs by UHPLC-DAD analysis. The series is classed as physicochemical.
Series [5] is described as follows: (§3) Cytotoxicity against human HepG2 cells assessed as reduction in cell viability incubated for 72 hrs by neutral red uptake method. The class given is toxicity, cell-based. The settings on record: HepG2 cells.
The nature of series [6]: (§4) Cytotoxicity against African green monkey Vero cells assessed as reduction in cell viability incubated for 72 hrs by neutral red uptake method. The series is classed as toxicity, cell-based. The settings on record: chlorocebus sabaeus, Vero cells.
Series [7] concerns HepG2. The series is described as §1. The class given is toxicity, cell-based. To be noted: hepg2, 72 h.
Series [8] deals with HepG2. Described as §3. The series is classed as toxicity, cell-based. The settings on record: hepg2, 72 h.
Series [9] concerns Vero. Described as §2. The class given is toxicity, cell-based. The settings on record: chlorocebus sabaeus, vero, 72 h.
Series [10] relates to Vero. Described as §4. The class given is toxicity, cell-based. To be noted: chlorocebus sabaeus, vero, 72 h.
Series [11] is described as follows: Aqueous solubility of compound in PBS at pH 7.4 incubated for 4 hrs by UHPLC-DAD analysis. The class given is physicochemical.
Series [12] can be described thus: Aqueous solubility of compound in NH4HCO3 at pH 9.1 incubated for 4 hrs by UHPLC-DAD analysis. The series is classed as physicochemical. The settings on record: NH4HCO3, pH 9.1.
The test system of a further series is Staphylococcus aureus. The class given is functional. The settings on record: ATCC 25923, time 24 hrs.
The next series deals with Escherichia coli. The class given is functional. The settings on record: ATCC 25922, time 24 hrs.
In another series the test system is Acinetobacter baumannii. The class given is functional. The settings on record: time 24 hrs.
A further series deals with Klebsiella pneumoniae. The series is classed as functional. To be noted: time 24 hrs.
Series [13] is described as follows: Chemical stability of compound in 0.1 M HCl solution at pH 1.2 assessed as parent compound remaining at 10 uM measured after 24 hrs by HPLC-MS/MS analysis. The class given is physicochemical. The settings on record: read-out: Stability.
A short description of series [14]: Chemical stability of compound in PBS at pH 7.4 assessed as parent compound remaining at 10 uM measured after 24 hrs by HPLC-MS/MS analysis. The series is classed as physicochemical. To be noted: read-out: Stability.
Series [15] is described as follows: Chemical stability of compound in 0.1M NH4HCO3 solution at pH 9.1 assessed as parent compound remaining at 10 uM measured after 24 hrs by HPLC-MS/MS analysis. The series is classed as physicochemical. To be noted: read-out: Stability.
Series [16] is described as follows: Permeability of compound at pH 7.4 at 10 uM measured after 5 hrs by PAMPA assay. To be noted: read-out: permeability. The class given is ADME.
The nature of series [17]: Metabolic stability in rat liver microsomes assessed as intrinsic clearance at 2 uM measured upto 30 mins in presence of NADPH by HPLC-MS/MS analysis. The class given is ADME, Microsome. The settings on record: read-out: CLH. In general terms: Microsomes from liver hold many membrane-bound enzymes, among them those of drug oxidation.
A short description of series [18]: Metabolic stability in rat liver microsomes assessed as half-life at 2 uM measured upto 30 mins in presence of NADPH by HPLC-MS/MS analysis. The series is classed as ADME, Microsome.
For series [19], the system named is Mycobacterium tuberculosis. The class given is functional, H37Rv (ATCC 27294), RAW264.7. To be noted: dose 1 µM; time 5 day.
In series [20] the test system is Mycobacterium tuberculosis. The class given is functional, H37Rv (ATCC 27294), RAW264.7. The settings on record: dose 5 µM; time 5 day.
Series [21] can be described thus: Drug concentration in male CF1 mouse plasma at 300 mg/kg, po administered via gavage and measured after […] by UHPLC-DAD analysis. The series is classed as ADME, organism-based. The settings on record: time 0.25 hrs.
Series [22] in a line: Drug concentration in male CF1 mouse plasma at 300 mg/kg, po administered via gavage and measured after 0.5 hrs by UHPLC-DAD analysis. The class given is ADME, organism-based.
Series [23] in a line: Drug concentration in male CF1 mouse plasma at 300 mg/kg, po administered via gavage and measured after 0.75 hrs by UHPLC-DAD analysis. The class given is ADME, organism-based.
The nature of series [24]: Drug concentration in male CF1 mouse plasma at 300 mg/kg, po administered via gavage and measured after 1 hrs by UHPLC-DAD analysis. The series is classed as ADME, organism-based.
The nature of series [25]: Drug concentration in male CF1 mouse plasma at 300 mg/kg, po administered via gavage and measured after 4 hrs by UHPLC-DAD analysis. The class given is ADME, organism-based.
The nature of series [26]: Drug concentration in male CF1 mouse plasma at 300 mg/kg, po administered via gavage and measured after 8 hrs by UHPLC-DAD analysis. The class given is ADME, organism-based.
The nature of series [27]: Half-life in male CF1 mouse at 300 mg/kg, po administered via gavage and measured after 8 hrs by UHPLC-DAD analysis. To be noted: in vivo. The class given is ADME, organism-based.
The nature of series [28]: Elimination rate constant in male CF1 mouse at 300 mg/kg, po administered via gavage and measured after 8 hrs by UHPLC-DAD analysis. The series is classed as ADME, organism-based. To be noted: in vivo.
Series [29] concerns Mycobacterium tuberculosis. The series is classed as functional, H37Rv (ATCC 27294), RAW264.7. The settings on record: dose 1 µM; time 5 day. The source holds these as a separate data set.

≈ marks a conversion by molar mass, not a printed value.

By CC50 is commonly meant the concentration that lowers cell viability or growth by half. Take `Cc1cc(OCCCNc2ccc(Br)cc2)c2cc(Cl)ccc2n1`: the CC50 at 72 h was 0.3 µM in [1] and < 1 µM in [2]. Besides, the MIC in series [3] came to 1.55 µM (≈ 0.629 µg/mL).

As usually defined, the solubility is the concentration that dissolves in the medium under given conditions. As for `CCc1ccc(NCCCOc2cc(C)nc3ccc(OC)cc23)cc1`, the solubility at 4 h in series [4] is 2650 µM (≈ 929 µg/mL). In [3], this compound came in with an MIC of 0.06 µM (≈ 0.021 µg/mL).

As for `COc1ccc2nc(C)cc(OCCCNc3ccc(Br)cc3)c2c1`, the CC50 at 72 h in series [1] was 15.3 µM; in [5], 16.8 µM; in series [2], > 20 µM; in series [6], 12.8 µM. For the same compound, the solubility at 4 h in series [4] is > 2500 µM. The MIC in series [3] turned out to be 0.1 µM (≈ 0.0401 µg/mL).

Consider `Cc1cc(OCCCNc2ccc(Cl)cc2)c2cc(Br)ccc2n1`, for which the cytotoxic concentration (CC50) at 72 h in series [1] and in [5] was > 20 µM throughout. Besides, the solubility at 4 h in series [4] was > 2470 µM.

In the case of `CCc1ccc(NCCCOc2cc(C)nc3ccc(Cl)cc23)cc1`, the CC50 entry in the series on HepG2 [7], in the series with HepG2 [8], with Vero [9] and in the series with Vero [10] was “Not_determined(Insoluble)” in each case. For the same compound, the solubility at 4 h in [11] was 0.06 µM (≈ 0.0213 µg/mL); in series [4], 200 µM (≈ 71 µg/mL); in series [12], 0.37 µM (≈ 0.131 µg/mL). Further, the MIC in series [3] was found to be 0.03 µM (≈ 0.0106 µg/mL).

In the case of `COc1ccc2nc(C)cc(OCCCNc3ccc(I)cc3)c2c1`, the CC50 at 72 h is 10.6 µM in [1], 12.8 µM in series [5], 8.2 µM in [2] and 7.5 µM in series [6]. In addition, the solubility at 4 h in [4] was > 2230 µM. Further, the MIC in series [3] came to 0.09 µM (≈ 0.0403 µg/mL).

With `CCc1ccc(NCCCOc2cc(CC)nc3ccc(Br)cc23)cc1`, the CC50 at 72 h in series [1] is > 20 µM; in series [5] it was 8.3 µM; in series [2], > 20 µM; in series [6] it was 9.1 µM. Moreover, the MIC in series [3] was determined as 0.1 µM (≈ 0.0413 µg/mL).

As a reminder, the half-life is the time needed for the level to fall by half in the phase considered. Consider `CCc1ccc(NCCCOc2cc(C)nc3ccc(Br)cc23)cc1`, for which the CC50 at 72 h in series [1], in series [5] and in [2] was > 20 µM throughout. In addition, in series [4], the solubility at 4 h was > 2500 µM. The MIC against Staphylococcus aureus, in the series with Escherichia coli, against Acinetobacter baumannii and in the series with Klebsiella pneumoniae was > 20 µM throughout. For the same compound, the results for the remaining at 24 h, 10 µM in [13], in series [14] and in [15] were 100%, 5.3% and 6%, respectively. In addition, the Papp at 5 h, 10 µM in series [16] is 0.2 ×10⁻⁶ cm/s. The CLint scaled at 2 µM in series [17] came out at 58 mL/min/kg. Besides, the half-life at 2 µM in [18] was found to be 7 min. The Activity in [19] came out at 3.9 log10CFU; in series [20] it was 4.1 log10CFU. Further, the concentration at […] in series [21] worked out at 7.49 µM. This compound also yielded a concentration at 0.5 h in series [22] of 11.1 µM. Moreover, in series [23], the concentration at 0.75 h worked out at 15.7 µM. This compound also returned a concentration at 1 h in [24] of 32.1 µM. Besides, the concentration at 4 h in series [25] stood at 13.5 µM. Moreover, in [26], the concentration at 8 h came out at 9.8 µM. For the same compound, the half-life in series [27] was 4.3 h. Besides, the k el at 8 h in [28] is 4.44e-05 s⁻¹.

Take `NNC(=O)c1ccncc1` [ISONIAZID]: the Activity in [29] was found to be 2.25 log10CFU.
